These results are taken from PMC8291587, “Guanidine Derivatives: How Simple Structural Modification of Histamine H3R Antagonists Has Led to the Discovery of Potent Muscarinic M2R/M4R Antagonists” (ACS Chemical Neuroscience, 2021).

In one assay the test system is H3R. As to the kind of experiment: H3R agonism check with thioperamide on electrically stimulated guinea pig ileum. The settings on record: thioperamide as H3R antagonist. As for the experimental part: A standard ex vivo assay based on the relaxant response of histamine H3R agonists to electrically driven guinea pig ileum was used to test the influence of ADS compounds on the reduction of electrically evoked tissue contraction. […] The −log EC50 value for RAMH and ADS compounds were evaluated. […] Following this, we decided to evaluate the ADS series as potential M2R/M3R ligands on the isolated guinea pig ileum.
Male guinea pigs, weighing 300–400 g, were euthanized by a blow to the neck. A 20–30 cm length of the distal ileum, apart from the terminal 5 cm, was rapidly removed and placed in phosphate buffer at room temperature (pH 7.4) containing (mM) NaCl (136.9), KCl (2.6), KH2PO4 (1.47), Na2HPO4 (9.58), and indomethacin (1 × 10^–6 mol/L)). The intraluminal content was rinsed, and the isolated intestine was cut into 1.5–2 cm segments. The preparations were mounted between two platinum electrodes isotonically in a 20 mL organ bath filled with Krebs buffer: composition (mM) NaCl (118), KCl (5.6), MgSO4 (1.18), CaCl2 (2.5), NaH2PO4·H2O (1.28), NaHCO3 (25), glucose (5.55), and indomethacin (3 × 10^–7 mol/L). […] Cumulative concentration–response curve was determined to RAMH or tested agonist (10 nM to 10 mM) at increasing concentrations spaced by 3- or 3.3-fold. The agonist potency is expressed as pD2 value (−log EC50) ± sem.

A further assay has as its target T1, muscarinic M2R (Homo sapiens, UniProt P08172).
T1 construct: host or cells: CHO cells (whole cells, Fura-2)
T1 sequence (P08172 1-466): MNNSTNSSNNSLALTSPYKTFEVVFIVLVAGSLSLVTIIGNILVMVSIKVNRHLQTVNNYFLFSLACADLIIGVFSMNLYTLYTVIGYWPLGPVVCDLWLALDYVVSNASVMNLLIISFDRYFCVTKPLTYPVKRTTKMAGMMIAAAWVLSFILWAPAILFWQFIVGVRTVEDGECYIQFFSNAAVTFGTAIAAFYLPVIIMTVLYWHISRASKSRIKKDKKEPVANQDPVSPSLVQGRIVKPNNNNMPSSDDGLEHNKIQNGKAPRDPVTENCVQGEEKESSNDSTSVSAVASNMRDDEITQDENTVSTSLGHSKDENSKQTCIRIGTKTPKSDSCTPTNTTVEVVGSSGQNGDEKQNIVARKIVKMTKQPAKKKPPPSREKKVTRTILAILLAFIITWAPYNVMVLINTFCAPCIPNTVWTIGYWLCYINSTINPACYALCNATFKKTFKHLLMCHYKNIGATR
As to the kind of experiment: Intracellular Ca2+ measurement, functional response to ACh, M2R in CHO cells. It is filed as cell-based. As for the experimental part: (§1) Linear Schild plot indicates the competitive interaction (slope = 1) of the tested compound (Supporting Information, Figure S55).
(§2) Intracellular Ca^2+ level was taken as a functional response to ACh. Black 96-well plates were seeded with 12,000 CHO cells per well. After two days of cultivation in DMEM at 37 °C under a humidified atmosphere containing 5% CO2, cells were washed with Krebs-HEPES buffer (KHB) (composition: (mM) NaCl (138), KCl (4), CaCl2 (1.3), MgCl2 (1), NaH2PO4 (1.2), HEPES (20), glucose (10), pH adjusted to 7.4) KHB was loaded with 5 μM Fura-2 (Sigma-Aldrich) for 1 h. The cells were washed with fresh KHB and preincubated with tested compounds for 1 h. Then plates were placed in a Cytation 3 reader. The first basal level (fluorescence dual excitation at 340 and 380 nm, emission at 510 nm) was measured. Following this, ACh was added to the desired concentration (ranging from 10 pM to 100 μM) by instrument injectors, and fluorescence was measured immediately. Intracellular Ca^2+ level was calculated as a ratio of 340 to 380 nm excitation fluorescence. […]
(§3) The intracellular level of calcium at various concentrations of ACh was measured. […] From a series of EC50 values of apparent inhibition constant KB was calculated by fitting eq 5 to dose ratio (DR) induced by tested compound at a given concentration: [drawing 5] […]

Another assay concerns the target T2, hH3R (Homo sapiens, UniProt Q9Y5N1).
T2 construct: expressed in transfected cells; membrane fractions
As to the kind of experiment: hH3R radioligand displacement binding assay ([3H]-Nα-methylhistamine, HEK-293 cell membranes). As to conditions: [3H]-Nα-methylhistamine; HEK-293 membranes; read-out: hH3R -log(Ki) ± sem (converted). As for the experimental part:
[^3H]-N^α-Methylhistamine was used as a radiolabeled ligand.
The radioligand displacement binding assay was performed in membrane fractions of HEK-293 cells stably expressing hH3R. Cell cultivation and membrane preparation were performed according to Kottke et al.[43] […] The total assay volume was set to 200 μL. The compounds were tested in several appropriate concentrations between 100 μM and 0.1 nM. Pipetting was partly done by Freedom Evo (Tecan). […] The membrane fraction (20 μg/well), test compounds, and radiolabeled ligand were incubated for 90 min at 25 °C while shaking. The bound radioligand was separated from free radioligand by filtration through GF/B filters pretreated with 0.3% (m/v) polyethylenimine using a cell harvester. Radioactivity was determined by liquid scintillation counting using a MicroBeta Trilux (PerkinElmer). The data were obtained in duplicates in at least three independent experiments. Nonspecific binding was subtracted from the raw data to calculate specific-binding values. The evaluation was performed with GraphPad Prism 6.1 (San Diego, CA, USA) using nonlinear regression (one-site competition with a logarithmic scale). The Ki values were calculated from the IC50 values using the Cheng–Prusoff equation.[44] The statistical calculations were performed on −log Ki. The mean values and 95% confidence intervals were transformed to nanomolar concentrations.

The target of another assay is T3, M3R (Homo sapiens, UniProt P20309).
T3 construct: host or cells: CHO cells (whole cells, Fura-2)
As to the kind of experiment: Intracellular Ca2+ measurement, functional response to ACh, M3R in CHO cells. It is filed as cell-based. As to conditions: antagonism of ACh-induced Ca2+ response, read-out: pKB M3R (converted). As for the experimental part: as §1, §2, §3

T2 sequence (Q9Y5N1 whole entry): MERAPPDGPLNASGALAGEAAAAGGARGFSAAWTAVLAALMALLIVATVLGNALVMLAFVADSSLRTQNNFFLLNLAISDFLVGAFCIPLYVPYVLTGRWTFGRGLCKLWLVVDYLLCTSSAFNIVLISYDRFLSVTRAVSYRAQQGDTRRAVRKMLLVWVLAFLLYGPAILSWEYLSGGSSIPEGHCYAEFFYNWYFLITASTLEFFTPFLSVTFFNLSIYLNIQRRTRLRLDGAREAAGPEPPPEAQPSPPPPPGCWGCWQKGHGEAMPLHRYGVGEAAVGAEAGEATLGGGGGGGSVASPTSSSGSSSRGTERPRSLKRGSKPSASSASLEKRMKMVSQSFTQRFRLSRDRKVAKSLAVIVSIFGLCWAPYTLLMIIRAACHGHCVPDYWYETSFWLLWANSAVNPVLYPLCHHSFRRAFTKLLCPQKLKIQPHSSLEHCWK
T3 sequence (P20309 whole entry): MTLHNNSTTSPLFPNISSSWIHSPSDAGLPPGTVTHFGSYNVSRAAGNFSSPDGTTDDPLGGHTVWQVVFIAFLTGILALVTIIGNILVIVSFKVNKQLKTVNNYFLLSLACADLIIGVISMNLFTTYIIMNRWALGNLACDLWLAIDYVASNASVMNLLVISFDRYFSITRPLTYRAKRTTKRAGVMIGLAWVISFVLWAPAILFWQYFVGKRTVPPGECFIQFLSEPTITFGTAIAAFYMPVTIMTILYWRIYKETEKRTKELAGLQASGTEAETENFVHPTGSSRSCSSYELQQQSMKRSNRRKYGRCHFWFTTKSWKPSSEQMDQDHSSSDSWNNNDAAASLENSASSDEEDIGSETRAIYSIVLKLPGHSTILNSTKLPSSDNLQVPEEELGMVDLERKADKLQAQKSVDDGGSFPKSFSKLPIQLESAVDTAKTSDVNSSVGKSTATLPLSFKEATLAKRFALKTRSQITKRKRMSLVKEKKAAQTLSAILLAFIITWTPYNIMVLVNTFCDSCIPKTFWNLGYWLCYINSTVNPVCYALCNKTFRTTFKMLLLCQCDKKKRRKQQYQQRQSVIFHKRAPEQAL

`N=C(N)N(CCCCN1CCN(C[C@H]2CC[C@@H](COc3ccccc3)CC2)CC1)Cc1ccccc1` [ADS10227, 1-{4-{4-{[4-(phenoxymethyl)cyclohexyl]methyl}piperazin-1-yl}but-1-yl}-1-(benzyl)guanidine]: the “shift of the concentration–response curve with or without thioperamide (H3R agonism)” value in the assay with H3R is “no shifts”. For the same compound, the Kb on muscarinic M2R (antagonism of ACh-induced Ca2+ response, CHO cells, read-out: pKB M2R (converted)) is 0.00676 µM; at M3R it was 0.0372 µM. This compound also registered a Schild plot slope at muscarinic M2R (linear Schild plot, competitive interaction, M2R and M3R Ca2+ assays) of 1. Besides, the inhibition constant (Ki) at hH3R is 5.89 µM.

Regarding `[H]/N=C(/N)N(CCCCN1CCN(CC2CCC(COc3ccccc3)CC2)CC1)Cc1ccc(C(F)(F)F)cc1` (stereo not drawn) [ADS10239], the inhibitory constant (Ki) on hH3R is 2.34 µM.
